Source: publication PMC12430544 (Molecules, 2025)
Values joined by “and” are separate entries in the source; they are usually repeats but may differ in a detail not shown here. Equal values may be shown once.

Assays:
Aβ1–42 = biological target: T1, Aβ1–42 (Homo sapiens, UniProt P05067); test: Inhibition of self-induced Aβ1–42 aggregation (ThT fluorescence); format: biochemical; settings: 20 μM compound, thioflavin-T fluorescence, mean ± SD of at least three independent experiments; read-out: Aβ Aggregation Inhibition (%), self-induced Aβ1–42
T1 construct: aggregation of Aβ1–42 synthetic peptide into fibrils
Description: Self-induced Aβ1–42 aggregation of all the compounds we obtained was also evaluated. […] ThT is a histochemical dye that is known to bind to the peptide β-sheet conformation, which is the predominant secondary structure of amyloid-beta fibrils. […] The inhibition studies were carried out upon incubating Aβ1–42 with and without the compounds.
Aβ1–42 was dissolved in 100% 1,1,1,3,3,3-[…] (HFIP) to a concentration of 1 mg/mL, sonicated in a water bath overnight, aliquoted into microcentrifuge tubes, dried under vacuum, and stored at −20 °C. Immediately prior to use, the HFIP-treated Aβ1–42 was dissolved in dimethylsulfoxide (DMSO) as the stored solution. […] Amounts of 5 μL of compound (200 μM) and 5 μL of 200 μM Aβ1–42 were added into 40 μL of phosphate-buffered saline (PBS at pH 7.4). After incubation at room temperature on a thermostatic shaker for 72 h, 100 μL of 5 μM ThT solution (in PBS at pH 7.4) was added to the reaction solution. […] The Aβ1–42 aggregation inhibition percentage was calculated using the following formula: inhibition percentage = (F1 − F2)/(F1 − F0) × 100%.

[1] = Metal chelation by UV–vis spectrometry (Fe); format: physicochemical
Description: (§1) Given the 8-hydroxy(amino)quinoline moiety with the properties to bind metal ions, the abilities of all the compounds in binding metal ions (Cu^II, Fe^III, Zn^II) were studied by UV–vis spectrometry. At first three compounds were chose to test the binding abilities. Upon the addition of CuCl2 or ZnSO4 the maximum absorption suffered a bathochromic shift, pointing out the formation of complex compound–Cu^II. […] […].
(§2) Metal-chelating properties were evaluated by UV–vis spectrometry. To screen the ability of chelating metal ions, the same concentrations of compound and metal ion were mixed in CH3OH/H2O (v/v = 9/1), and the UV–vis spectrum was tested; compared to the compound, the maximum absorption that suffered a bathochromic shift would point out the formation of a complex compound–metal ion. The stoichiometry of the complex compound–metal ion was determined by Job’s method. The affinity of compounds 15–17 as ligands (excepted 15f, 16d, 16g, 16k) for Cu^II or Zn^II were estimated in the CH3OH/H2O solution (v/v = 9/1). Since all the ligands studied L from ML2 species and in accordance with the Beer–Lambert law, complexation reactions can be summarized as 2L+M⇔ML2 with K = 1−α/4C^2α^3 , and α = A/Amax; A was the data of absorption tested when the compound–metal ion = 2/1 under the maximum absorption wavelength of the complex, Amax was the absorption when the compound completely formed a complex with the metal ion; the data can be obtained as an approximation when the metal ion is in excess, and the absorption changes little as the concentration of metal ion still increases.

[2] = biological target: T2, acetylcholinesterase (AChE, from an electric eel) (Electrophorus electricus, UniProt O42275); test: biochemical; settings: for IC50: electric eel AChE, Ellman's method, pH 7.4, means ± SEM of at least three experiments, read-out: IC50 AChE Inhibition; for Selectivity Index = IC50 (AChE)/IC50 (BuChE): ratio of eeAChE and equine BuChE IC50
T2 construct: purchased Sigma-Aldrich
Description: (§3) Cholinesterase (ChE) inhibitory activity was evaluated using a modified Ellman’s spectrophotometric method. Acetylcholinesterase (AChE, from electric eel), butyrylcholinesterase (BuChE, from equine serum), 5,5′-dithiobis-(2-nitrobenzoic acid) (Ellman’s reagent, DTNB), S-butyrylthiocholine iodide (BTCI), acetylthiocholine iodide (ATCI), and tarcine hydrochloride were purchased from Sigma-Aldrich. Tarcine hydrochloride was used as a reference standard. All the assays were carried out in 0.1 M KH2PO4/K2HPO4 buffer (pH = 7.4). Stock solutions of tested compounds (10 mM) were prepared in DMSO (below 0.5%, v/v) and diluted in phosphate buffer. The assay was performed in 96-well plate by adding 25 μL of 1 mM acetylthiocholine iodide or butyrylthiocholine iodide used as substrate in the assay, 125 μL of 1 mM 5,5′-dithiobis-(2-nitrobenzoic acid) (DTNB), 25 μL of 0.1 M phosphate buffer (pH = 7.4), 25 μL of testing substance in various concentrations, and 50 μL of 0.2 Units/mL AChE from an electric eel or BuChE from equine serum, respectively. At least five concentrations of the test compounds were assayed. […] The enzyme activity and the percentage inhibition were determined.

[3] = biological target: T3, butyrylcholinesterase (BuChE, from horse serum) (Equus caballus, UniProt P81908); test: biochemical; settings: equine serum BuChE, Ellman's method, pH 7.4; means ± SEM of at least three experiments; read-out: IC50 BuChE Inhibition
T3 construct: purchased Sigma-Aldrich
Description: as §3

[4] = Metal chelation by UV–vis spectrometry, Job's method and affinity estimate (Cu); format: physicochemical; settings: for LogK Cu (affinity of ligand for Cu^II, ML2): 2L+M⇔ML2; for Mole fraction of compound at the intersection of the Job plot (Cu^II): Job's method, CuSO4, sum of concentrations 20 μm; for Maximum absorption of compound–Cu^II complex: bathochromic shift from 246 nm of the free compound
Description: as §1
(§4) To determine the stoichiometry of the complex compound–Cu^II, the technique of continuous variations (also called Job’s method) was used by preparing solutions of compounds 15a, 17b and CuSO4 so that the sum of concentrations of both species was constant at […] in all samples, but the proportions of both components varied between 0 and 100%. The UV spectra were recorded and the absorbance change at the maximum absorption wavelength of the compound-Cu^II complex, meaning the 15a-Cu^II complex at 264 nm and the 17b-Cu^II at 265 nm, respectively. The absorbance change was plotted versus the mole fraction of the compound, giving two straight lines whose equations were calculated. […] […].
(§5) Since all the ligands studied L from ML2 species and in accordance with the Beer–Lambert law, complexation reactions can be summarized as 2L+M⇔ML2 with K = 1−α/4C^2α^3 , and α can be calculated from the data of the absorption.
as §2

[5] = Metal chelation by UV–vis spectrometry, stoichiometry and affinity estimate (Zn); format: physicochemical; settings: for LogK Zn (affinity of ligand for Zn^II, ML2): 2L+M⇔ML2; for Maximum absorption of compound–Zn^II complex: bathochromic shift from 246 nm of the free compound
Description: as §1, §4, §5, §2

[6] = parameters: method as in PMID 17382398; settings: data from the literature ref 50; cited from earlier work
[7] = parameters: method as in PMID 17382398; settings: data from the literature ref 50; cited from earlier work; remark: listed apart in the source
[8] = biological target: T4, electric eel AChE (eeAChE) (Electrophorus electricus, UniProt O42275); test: Kinetic study of AChE inhibition (Lineweaver–Burk plots); format: biochemical; settings: 16e at 10, 50 and 100 nM, Lineweaver–Burk plot
T4 construct: purchased Sigma-Aldrich
T4 sequence (O42275 24-633): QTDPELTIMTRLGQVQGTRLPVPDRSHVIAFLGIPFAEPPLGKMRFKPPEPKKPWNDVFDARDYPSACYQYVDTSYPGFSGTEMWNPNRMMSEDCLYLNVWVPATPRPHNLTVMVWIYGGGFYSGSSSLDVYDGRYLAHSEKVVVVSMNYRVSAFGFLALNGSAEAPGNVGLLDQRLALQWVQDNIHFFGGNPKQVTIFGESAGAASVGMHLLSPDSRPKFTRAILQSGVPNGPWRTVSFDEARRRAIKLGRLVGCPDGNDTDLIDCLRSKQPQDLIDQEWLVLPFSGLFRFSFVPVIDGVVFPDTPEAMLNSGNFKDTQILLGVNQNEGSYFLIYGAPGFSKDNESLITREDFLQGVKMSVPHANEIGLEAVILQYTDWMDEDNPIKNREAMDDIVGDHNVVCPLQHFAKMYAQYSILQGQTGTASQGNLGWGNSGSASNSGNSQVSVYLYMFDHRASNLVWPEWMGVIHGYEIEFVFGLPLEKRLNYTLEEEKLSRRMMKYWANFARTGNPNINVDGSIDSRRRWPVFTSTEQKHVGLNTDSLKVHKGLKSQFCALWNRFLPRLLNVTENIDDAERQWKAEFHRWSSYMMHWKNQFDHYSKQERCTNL
Description: To elucidate the mechanism of AChE’s inhibition by the synthesized hybrids, a detailed enzyme kinetic study was conducted using electric eel AChE (eeAChE).
The slope (Km/Vmax) reflects the apparent enzyme–substrate affinity, whereas the y-intercept (1/Vmax) corresponds to the maximum reaction velocity.
The assay medium contained 25 μL of PBS (pH 7.4), 50 μL of enzyme, 25 μL of compound solution, and 125 μL of 1.0 mM DTNB; the reaction was started by addition of 25 μL of different concentrations of ATC.
The slope (Km/Vmax) reflects the enzyme’s affinity for the substrate in the presence of the inhibitor, while the y-intercept (1/Vmax) indicates the maximum velocity of the reaction.

T1 sequence (P05067 672-713): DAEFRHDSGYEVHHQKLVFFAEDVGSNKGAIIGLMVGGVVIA
T3 sequence (P81908 whole entry): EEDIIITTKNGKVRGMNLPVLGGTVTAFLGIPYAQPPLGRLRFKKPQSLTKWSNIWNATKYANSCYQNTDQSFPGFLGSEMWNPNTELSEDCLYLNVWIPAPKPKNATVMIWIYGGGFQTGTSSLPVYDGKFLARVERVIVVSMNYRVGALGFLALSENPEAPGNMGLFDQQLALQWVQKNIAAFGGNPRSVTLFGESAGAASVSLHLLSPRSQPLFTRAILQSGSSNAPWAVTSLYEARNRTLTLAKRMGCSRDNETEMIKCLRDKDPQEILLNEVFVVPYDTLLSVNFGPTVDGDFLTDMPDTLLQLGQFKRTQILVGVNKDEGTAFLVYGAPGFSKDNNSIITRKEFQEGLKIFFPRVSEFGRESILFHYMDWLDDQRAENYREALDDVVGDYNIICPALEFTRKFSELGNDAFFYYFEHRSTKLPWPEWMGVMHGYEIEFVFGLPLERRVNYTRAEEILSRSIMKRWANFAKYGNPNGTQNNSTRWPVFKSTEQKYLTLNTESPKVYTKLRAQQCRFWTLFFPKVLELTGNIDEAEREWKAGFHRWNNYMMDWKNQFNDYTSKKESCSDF
T2 sequence (O42275 24-633): as the sequence (O42275 24-633) above

Structure (SMILES): Nc1cccc2ccc(CN3CCN(CCCNc4c5c(nc6ccccc46)CCCC5)CC3)nc12 [Compound 16g, N-(3-(4-((8-aminoquinolin-2-yl)methyl)piperazin-1-yl)propyl)-1,2,3,4-tetrahydroacridin-9-amine]
- inhibition at 20 µM (Aβ1–42): 94.6 ± 4.2%
- Complex formation with Fe^III (UV–vis shift) [1]: no reliable shift
- IC50 [2]: 52 ± 1 nM
- Selectivity Index = IC50 (AChE)/IC50 (BuChE) [2]: 2.89
- IC50 [3]: 18 ± 3 nM
- Complex formation with Cu^II (UV–vis shift / binding) ([4]; UV–vis, CH3OH/H2O (v/v = 9/1)): no reliable shift
- Complex formation with Zn^II (UV–vis shift / binding) ([5]; CH3OH/H2O (v/v = 9/1)): no reliable shift

Structure (SMILES): Oc1c(I)cc(Cl)c2cccnc12 [clioquinol, reference compound]
- LogK Cu, value in parentheses [6]: 10.08
- LogK Cu (affinity of ligand for Cu^II, ML2) ([4]; CH3OH/H2O (v/v = 9/1), UV–vis): 9.86
- LogK Zn, value in parentheses [7]: 8.84
- LogK Zn (affinity of ligand for Zn^II, ML2) ([5]; CH3OH/H2O (v/v = 9/1)): 8.38

Structure (SMILES): O=C(CN1CCN(Cc2ccc3cccc(O)c3n2)CC1)Nc1c2c(nc3ccccc13)CCCC2 [Compound 15a, 2-(4-((8-Hydroxyquinolin-2-yl)methyl)piperazin-1-yl)-N-(1,2,3,4-tetrahydroacridin-9-yl)acetamide]
- inhibition at 20 µM (Aβ1–42): 46.8 ± 4.1%
- Complex formation with Fe^III (UV–vis shift) [1]: no reliable shift
- IC50 [2]: 2020 ± 120 nM
- Selectivity Index = IC50 (AChE)/IC50 (BuChE) [2]: 0.26
- IC50 [3]: 7740 ± 890 nM
- LogK Cu (affinity of ligand for Cu^II, ML2) ([4]; CH3OH/H2O (v/v = 9/1), UV–vis): 10.14
- Mole fraction of compound at the intersection of the Job plot (Cu^II) [4]: around 0.7
- Maximum absorption of compound–Cu^II complex ([4]; UV–vis): 264 nm
- LogK Zn (affinity of ligand for Zn^II, ML2) ([5]; CH3OH/H2O (v/v = 9/1)): 9.91
- Maximum absorption of compound–Zn^II complex [5]: 266 nm and 262 nm

Structure (SMILES): Cc1ccc2c(CN3CCN(CC(=O)Nc4c5c(nc6ccccc46)CCCC5)CC3)ccc(O)c2n1 [Compound 17b, 2-(4-((8-Hydroxy-2-methylquinolin-5-yl)methyl)piperazin-1-yl)-N-(1,2,3,4-tetrahydroacridin-9-yl)acetamide]
- inhibition at 20 µM (Aβ1–42): 23.3 ± 3.2%
- Complex formation with Fe^III (UV–vis shift) [1]: no reliable shift
- IC50 [2]: 2530 ± 200 nM
- Selectivity Index = IC50 (AChE)/IC50 (BuChE) [2]: 0.58
- IC50 [3]: 4390 ± 270 nM
- LogK Cu (affinity of ligand for Cu^II, ML2) ([4]; CH3OH/H2O (v/v = 9/1), UV–vis): 9.42
- Mole fraction of compound at the intersection of the Job plot (Cu^II) [4]: around 0.7
- Maximum absorption of compound–Cu^II complex ([4]; UV–vis): 265 nm
- LogK Zn (affinity of ligand for Zn^II, ML2) ([5]; CH3OH/H2O (v/v = 9/1)): 9.71
- Maximum absorption of compound–Zn^II complex [5]: 262 nm

Structure (SMILES): Oc1cccc2ccc(CN3CCN(CCCNc4c5c(nc6ccccc46)CCCC5)CC3)nc12 [Compound 16e, 2-((4-(3-((1,2,3,4-Tetrahydroacridin-9-yl)amino)propyl)piperazin-1-yl)methyl)quinolin-8-ol]
- inhibition at 20 µM (Aβ1–42): 80.5 ± 4.4%
- Type of AChE inhibition [8]: mixed-type inhibition
- IC50 [2]: 100 ± 3.2 nM
- Selectivity Index = IC50 (AChE)/IC50 (BuChE) [2]: 2.33
- IC50 [3]: 43 ± 5 nM
- LogK Cu (affinity of ligand for Cu^II, ML2) ([4]; CH3OH/H2O (v/v = 9/1), UV–vis): 9.46
- LogK Zn (affinity of ligand for Zn^II, ML2) ([5]; CH3OH/H2O (v/v = 9/1)): 9.63
